# Laboratory results from patent US20080033007A1, “Substituted Tetrahydroisoquinoline Compounds for Cancer Therapy” (priority 2002, published 2008).
# Entries after “also recorded” stand apart in the source; their conditions may differ.
# How the values were obtained:
# C6 glioma = experiment: in vivo rat model: C6 glioma cells injected into brain, treatment by osmotic mini pump; conditions: rat hippocampus, 7 days treatment
# From the text: Approximately 5×10^4 C6 glioma cells were transplanted into a rat brain via a cannula followed by treatment for seven days. Tumor cells are depicted by staining for beta galactosidase.
# FIG. 2 is a graph depicting the maximum extent of tumor in a single section.
# A rat model system was developed to examine the in vivo efficacy of the compounds of the present invention.
# The first step was to produce a cell line with a marker gene. A rat C6 glioma cell line was selected and stably transfected with a β-galactosidase construct. These cells were cultured and prepared for injection into the brain of adult Sprague-Dawley rats to simulate in vivo tumor development.
# The animals were anesthetized and a cannula was placed into the brain. Approximately 5×10^4 glioma cells were injected through the cannula. […] The mini osmotic pump delivered 1 μl/hr for 7 days. With the tubing used to connect the pump, there was approximately a 10 hour delay for the treatment to reach the brain.
# The section with the largest extent of tumor visible in all of the cases was identified and the cross-sectional area of the tumor was measured.
# [1] = test system: MCF7, A549, HeLa, LnCap cancer cell lines; experiment: anti-proliferative activity against cancer cell lines, 96 hr; assay type: cell-based; conditions: every type of cancer tested: brain, breast, lung epithelial, cervical, prostate cancer cell lines
# Method: Cell proliferation was measured and EC50 values were estimated.
# [2] = animal toxicity test, delivery into striatum by mini-osmotic pump; assay type: in vivo, rat; conditions: 5 μM into striatum, five days, Nissl stain; hydrochloride
# Method: The drug was delivered directly into the striatum of rats at a concentration of 5 μM, two times greater than the estimated EC50 value. […] The rats were sacrificed, brain sections were investigated for any major tissue change in the brain. Brains were fixed in 4% paraformaldehyde, cut in sections and stained by the Nissl method.
# The drug was administered into the striatum of rats at 5 μM, which is approximately two times greater than the estimated EC5) value. […] The rats were sacrificed and brain sections were investigated for any major tissue change in the brain. Brains were fixed in 4% paraformaldehyde, cut in sections, and stained by the Nissl method.
# C6 rat glioma = experiment: differential culture cytotoxicity assay, C6 glioma; conditions: comparison of IC50 values
# Method: Normal cultured rat astrocytes and C6 rat glioma were used as a differential screen for a variety of 1,2,3,4-tetrahydroisoquinoline derivatives. […] To explore structure activity relationships (SAR) a number of 1,2,3,4-tetrahydroisoquinolines 2, 4, 5, 7, and 8 were synthesized and tested for antiglioma activity.
# The astrocytes primary culture was derived from neonatal (4-8 days postpartum) rat pups as described by Geisert et al. The primary cultures were prepared as per McCarthy et al. Briefly, the rat pups were anesthetized on ice, decapitated, and the brains were removed. The cerebral cortex was removed, stripped of the meninges, and cut into small pieces of approximately 1 mm^2. The tissue was placed in 0.1% trypsin for 15 min and gently pipetted to produce a single cell suspension. The cell suspension was then rinsed in media and transferred to culture flasks. […]
# The experimental treatment was the incubation of the cells with test compound for 96 h at 37° C., 5% CO2. The cells were fixed with 4% formaldehyde, stained with 0.1% cresylecth violet stain, and quantitated as per Wagner et a. […]
# The cytotoxic character of each compound was reported as the percent survival, calculated as the average A560 for treated cells divided by A560 of untreated (negative control) cells, and expressed as a percentage. […]
# [3] = test system: primary cultured cortical astrocytes; experiment: effect on primary cultured cortical astrocytes (Example 5); conditions: at EC50 concentrations for the C6 gliomas
smiles,measurement,setting,value
Cl.Oc1cc2c(cc1O)C(Cc1ccc(-c3ccccc3)cc1)NCC2 (racemic) [MMGS-155],pathology of normal brain tissue beneath treatment cannula,C6 glioma,Limited pathology
same,"LD50, killing of cancer cells in culture",[1],approximately 3 μM
same,brain damage / tissue change,[2],did not show any sign of brain damage; also recorded: brain tissue appears normal
same,cytotoxic activity relative to another compound,"C6 rat glioma; listed as 1, hydrochloride",more potent; also recorded: at least two-fold higher potency
same,cytotoxic activity relative to another compound,"C6 rat glioma; listed as 1-(biphenyl-4-ylmethyl)-1,2,3,4-tetrahydroisoquinoline-6,7-diol, hydrochloride",increased relative potency
same,destruction to astrocytes,[3],only minimal destruction to astrocytes
